# Reference: patent publication US12297235B2, “Synthetic peptide compounds and methods of use” (REALTA HOLDINGS, LLC, priority 2015, dated 2025)
# Entries after “also recorded” stand apart in the source; their conditions may differ. Like-named read-outs stand apart in the source and are kept apart here. Square brackets hold non-standard residues; d marks the D form. Ends that are not written are not given here. Peptide text beside a SMILES is read from it. Sar = CNCC(=O)O
# Columns and labels:
# [1] = system: HSV-1; experiment: HSV-1-GFP infection of CV-1 cells, flow cytometry; assay type: cell-based; settings: 16 hours
# Description: CV-1 cells were infected with HSV-1-GFP for 16 hours. Post-infection, CV-1 cells were detected by flow cytometry (FIG. 33). […] Acyclovir (the standard of care for severe HSV-1 infections) was also added as a control at the same molar ratio.
# [2] = system: Gardnerella; experiment: Gardnerella growth inhibition; assay type: cell-based
# Description: The plates were then incubated at 37° C. overnight and then the plates were read on a spectrophotometer at an absorbance of OD600 nm to determine the turbidity of the solution. Decreased turbidity is indicative of inhibition of bacterial growth.
# Complement activation was assayed by measuring the production of C5a using ELISA methodology. […] The associated inflammation causes the symptoms of bacterial vaginosis and increases the risk of HIV-transmission by disrupting normal barrier defenses in the vagina.
# [3] = assay type: biochemical, human; settings: 0.77 mM peptide in factor B-depleted serum
# Description: (§1) Peptides were diluted to 0.77 mM in factor B-depleted human sera (Complement Technologies, Inc.) and incubated for 1 hour at 37° C. These peptides were then diluted with GVBS^++ to equal 2.5% serum, of which 0.25 ml was combined with 0.4 ml of GVBS^++ and 0.1 ml of sensitized sheep red blood cells (RBCs) and again incubated for 1 hour at 37° C. The procedure was stopped by the addition of 4.0 ml of GVBS^−− centrifuged for 5 minutes at 1,620×g, and the absorbance of the supernatants was read at 412 nm in a spectrophotometer. The percent lysis of each sample was standardized to that of the serum only control.
# (§2) The final concentration of peptide in factor B-depleted serum was 0.77 mM. Each peptide was evaluated in triplicate and the mean values are reported. […] In the hemolytic assay, soluble peptides are standardized to water and insoluble peptides standardized to DMSO.
# (§3) Polar Assortant peptides were serially diluted in undiluted factor B-depleted human sera (Complement Technologies, Inc.) and incubated for 1 hour at 37° C. Water, GVBS^++ and DMSO were included as controls. These peptides were then diluted with GVBS^++ to equal 2.5% serum, of which 0.25 ml was combined with 0.4 ml of GVBS^++ and 0.1 ml of sensitized sheep red blood cells (RBCs) and again incubated for 1 hour at 37° C. The procedure was stopped by the addition of 4.0 ml of GVBS^−−, centrifuged for 5 minutes at 1,620×g, and the absorbance of the supernatants was read at 412 nm in a spectrophotometer. The percent lysis of each sample was standardized to that of the serum only control.
# (§4) The final concentration of peptide in factor B-depleted serum was 0.77 mM. […] In the hemolytic assay, soluble peptides were standardized to water and insoluble peptides standardized to DMSO.
# (§5) The final concentration of peptide in factor B-depleted serum was 0.77 mM. […] In the hemolytic assay, soluble peptides are standardized to water and insoluble peptides standardized to DMSO.
# [4] = Solubility in water; assay type: physicochemical
# [5] = 40 mg [160 mg/kg] i.v.
# Description: Eight animals were sacrificed at day 3, and ten were sacrificed at day 14.
# [6] = system: complement activation in factor B-depleted human sera; assay type: biochemical; settings: for Complement inhibition in hemolytic assay: factor B-depleted serum
# Description: as §1, §2, §3, §4, §5
# [7] = Complement-mediated hemolysis of type B erythrocytes by type O donor plasma (ATR in vitro model); assay type: biochemical, human; settings: highly hemolytic type-O plasma, dose-response, maximum
# Description: Plasma from both donors were diluted with GVBS++ (veronal buffered saline with 0.1% gelatin, 0.15 mM CaCl2 and 1 mM MgCl2) and incubated with purified erythrocytes from a B+ donor at 37° C. for 1 hour. Free hemoglobin was measured by spectrophotometer at 412 nm.
# [8] = Single-dose toxicology, maximum deliverable dose; assay type: in vivo, rat; settings: 60 mg [240 mg/kg] i.v.
# [9] = system: complement-mediated hemolysis of transfused huRBCs; experiment: Rat AIHTR model, xenotransfusion of human RBCs; assay type: in vivo, Wistar rat; settings: prophylaxis; 40 mg PA-dPEG24 vs NS at 5 and 20 minutes (P≤0.05); CVF 130 μg i.p. 24 hours before
# Description: This process generates 1 ml huRBCs at 80% hematocrit, which was given as a 15% transfusion to the rats.
# For both experiments, animals allotted to the saline control group received NS prior to huRBC transfusion whereas the CVF group received 130 μg CVF (Complement Technologies, Inc.) intra-peritoneum (LP.) 24 hours prior to the huRBC transfusion.
# Using weight-based doses of ketamine and acepromazine, animals were sedated throughout the course of the experiment with periodic monitoring of vital signs. Blood samples were collected into EDTA microtainer tubes (BD) from the animals prior to the huRBC transfusion and then at 30 seconds, 5 minutes, 20 minutes, 60 minutes and 120 minutes after the huRBC transfusion. […]
# Flow cytometry was performed on the collected RBCs using a FACS Calibur flow cytometer (Becton Dickinson, Franklin Lakes, NJ) with DXP 8 Color 488/637/407 Upgrade (Cytek Development, Fremont, CA). […] Data was analyzed using FlowJo X version 10.0.7r2 (FlowJo LLC, Ashland, OR). […]
# For bilirubin measurements, the pre-bleed and 120 minute plasma samples from the prophylaxis (n=8) and NS (n=7) groups were analyzed for the amount of bilirubin present using the Bilirubin Assay Kit (Sigma-Aldrich, St. Louis, MO) in half the manufacturer's recommend volume. […]
# [10] = system: hypoxic ischemic brain injury; assay type: in vivo, Wistar rat; settings: CVF injection before ligation/hypoxia
compound,measurement,setting,value
Nc1nc2c(ncn2COCCO)c(=O)[nH]1 [Acyclovir],Inhibition of HSV-1 replication,[1],never able to completely inhibit replication
CC[C@H](C)[C@H](N)C(=O)N[C@@H](C)C(=O)N[C@@H](CC(C)C)C(=O)N(C)CC(=O)N[C@@H](CC(C)C)C(=O)N[C@@H](CCC(=O)O)C(=O)N1CCC[C@H]1C(=O)N[C@H](C(=O)N[C@@H](CS)C(=O)N[C@@H](CS)C(=O)N[C@@H](CCC(N)=O)C(=O)N[C@@H](CCC(=O)O)C(=O)N[C@@H](CCCNC(=N)N)C(=O)N[C@@H](C)C(=O)N[C@@H](C)C(=O)O)[C@@H](C)CC [PA-I4Sar] (H-IAL[Sar]LEPICCQERAA-OH),Inhibition of Gardnerella growth,[2],inhibited the growth
CC[C@H](C)[C@H](N)C(=O)N[C@@H](C)C(=O)N(C)CC(=O)N[C@H](C(=O)N[C@@H](CC(C)C)C(=O)N[C@@H](CCC(=O)O)C(=O)N1CCC[C@H]1C(=O)N[C@H](C(=O)N[C@@H](CS)C(=O)N[C@@H](CS)C(=O)N[C@@H](CCC(N)=O)C(=O)N[C@@H](CCC(=O)O)C(=O)N[C@@H](CCCNC(=N)N)C(=O)N[C@@H](C)C(=O)N[C@@H](C)C(=O)O)[C@@H](C)CC)[C@@H](C)CC [PA-L3Sar] (H-IA[Sar]ILEPICCQERAA-OH),Inhibition of Gardnerella growth,[2],inhibited the growth
CC[C@H](C)[C@H](N)C(=O)N[C@@H](C)C(=O)N[C@@H](CC(C)C)C(=O)N[C@H](C(=O)N(C)CC(=O)N[C@@H](CCC(=O)O)C(=O)N1CCC[C@H]1C(=O)N[C@H](C(=O)N[C@@H](CS)C(=O)N[C@@H](CS)C(=O)N[C@@H](CCC(N)=O)C(=O)N[C@@H](CCC(=O)O)C(=O)N[C@@H](CCCNC(=N)N)C(=O)N[C@@H](C)C(=O)N[C@@H](C)C(=O)O)[C@@H](C)CC)[C@@H](C)CC [PA-L5Sar] (H-IALI[Sar]EPICCQERAA-OH),Inhibition of Gardnerella growth,[2],inhibited the growth
CC[C@H](C)[C@H](NC(=O)[C@H](CC(C)C)NC(=O)[C@H](C)N)C(=O)N[C@@H](CC(C)C)C(=O)N[C@@H](CCC(=O)O)C(=O)N1CCC[C@H]1C(=O)N[C@H](C(=O)N[C@@H](CS)C(=O)N[C@@H](CS)C(=O)N(C)CC(=O)N[C@@H](CCC(=O)O)C(=O)N[C@@H](CCCNC(=N)N)C(=O)N[C@@H](C)C(=O)N[C@@H](C)C(=O)O)[C@@H](C)CC [PA-Q11Sar] (H-ALILEPICC[Sar]ERAA-OH; N-terminus and C-terminus assumed),hemolysis,"[3]; human, mean of triplicate, standardized to water (soluble) or DMSO (insoluble)",3.02%
same,Solubility in water,"[4]; Table 5, sarcosine substitution peptides",No
CC[C@H](C)[C@H](N)C(=O)N[C@@H](C)C(=O)N[C@@H](CC(C)C)C(=O)N[C@H](C(=O)N[C@@H](CC(C)C)C(=O)N[C@@H](CCC(=O)O)C(=O)N1CCC[C@H]1C(=O)N[C@H](C(=O)N[C@@H](CS)C(=O)N[C@@H](CS)C(=O)N[C@@H](CCC(N)=O)C(=O)N[C@@H](CCC(=O)O)C(=O)N[C@@H](CCCNC(=N)N)C(=O)N[C@@H](C)C(=O)N[C@@H](C)C(=O)NCCOCCOCCOCCOCCOCCOCCOCCOCCOCCOCCOCCOCCOCCOCCOCCOCCOCCOCCOCCOCCOCCOCCOCCOCCC(=O)O)[C@@H](C)CC)[C@@H](C)CC [PA-dPEG24],ALT,[5]; 48 Hr (n = 8),62.8 U/L
same,AST,[5]; 48 Hr (n = 8),108 U/L
same,AlkPhos,[5]; 48 Hr (n = 8),104 U/L
same,BUN,[5]; 48 Hr (n = 8),17.8 mg/dL
same,Bilirubin,[5]; 48 Hr (n = 8),0.1 mg/dL
same,CPK,[5]; 48 Hr (n = 8),538 U/L
same,Creatinine,[5]; 48 Hr (n = 8),0.3 mg/dL
same,GGT,[5]; 48 Hr (n = 8),1.0 U/L
same,Lipase,[5]; 48 Hr (n = 8),11.8 U/L
same,Platelets,[5]; 48 Hr (n = 8),987 10^3/μL
same,RBC,[5]; 48 Hr (n = 8),5.8 10^6/μL
same,ALT,[5]; Day 14 (n = 10),77.4 U/L
same,AST,[5]; Day 14 (n = 10),111 U/L
same,AlkPhos,[5]; Day 14 (n = 10),115 U/L
same,BUN,[5]; Day 14 (n = 10),13.2 mg/dL
same,Bilirubin,[5]; Day 14 (n = 10),0.1 mg/dL
same,CPK,[5]; Day 14 (n = 10),592 U/L
same,Creatinine,[5]; Day 14 (n = 10),0.3 mg/dL
same,GGT,[5]; Day 14 (n = 10),1.1 U/L
same,Lipase,[5]; Day 14 (n = 10),6.4 U/L
same,Platelets,[5]; Day 14 (n = 10),825 10^3/μL
same,RBC,[5]; Day 14 (n = 10),6.6 10^6/μL
same,Organ histology,[5]; day 3 and day 14,no histological evidence for toxicity
same,"Blood chemistry assay results (CBC, superchem, coagulation)",[5]; pretreatment vs day 3 or day 14,no differences
same,hemolysis,"[3]; standardized to water or DMSO, Table 6",2.99%
same,Hemolysis (%),"[6]; 0.77 mM peptide in factor B-depleted serum, standardized to water or DMSO, Table 7",2.99%
same,Solubility in water,"[4]; Table 7, PEGylated and Sar/Ala substitution peptides",Yes
same,percent inhibition of hemolysis,[7],> 95%
same,ALT,[8]; 48 Hr (n = 6),44.0 U/L
same,AST,[8]; 48 Hr (n = 6),69.0 U/L
same,AlkPhos,[8]; 48 Hr (n = 6),194 U/L
same,BUN,[8]; 48 Hr (n = 6),15.8 mg/dL
same,Bilirubin,[8]; 48 Hr (n = 6),0.1 mg/dL
same,CPK,[8]; 48 Hr (n = 6),142 U/L
same,Creatinine,[8]; 48 Hr (n = 6),0.3 mg/dL
same,GGT,[8]; 48 Hr (n = 6),1 U/L
same,Lipase,[8]; 48 Hr (n = 6),10.3 U/L
same,Platelets,[8]; 48 Hr (n = 6),1045 10^3/μL
same,RBC,[8]; 48 Hr (n = 6),5.3 10^6/μL
same,ALT,[8]; Day 7 (n = 6),76.3 U/L
same,AST,[8]; Day 7 (n = 6),84.3 U/L
same,AlkPhos,[8]; Day 7 (n = 6),147 U/L
same,BUN,[8]; Day 7 (n = 6),13.5 mg/dL
same,Bilirubin,[8]; Day 7 (n = 6),0.1 mg/dL
same,CPK,[8]; Day 7 (n = 6),316 U/L
same,Creatinine,[8]; Day 7 (n = 6),0.4 mg/dL
same,GGT,[8]; Day 7 (n = 6),1 U/L
same,Lipase,[8]; Day 7 (n = 6),8.5 U/L
same,Platelets,[8]; Day 7 (n = 6),623 10^3/μL
same,RBC,[8]; Day 7 (n = 6),5.8 10^6/μL
same,ALT,[8]; Day 14 (n = 6),55.8 U/L
same,AST,[8]; Day 14 (n = 6),104 U/L
same,AlkPhos,[8]; Day 14 (n = 6),154 U/L
same,BUN,[8]; Day 14 (n = 6),14.7 mg/dL
same,Bilirubin,[8]; Day 14 (n = 6),0.1 mg/dL
same,CPK,[8]; Day 14 (n = 6),580 U/L
same,Creatinine,[8]; Day 14 (n = 6),0.4 mg/dL
same,GGT,[8]; Day 14 (n = 6),1 U/L
same,Lipase,[8]; Day 14 (n = 6),9.7 U/L
same,Blood work (CBC and complete blood chemistry) toxicities,"[8]; first 24 hours, 48 hours, day 7 or day 14",No toxicities
cobra venom factor [CVF],Free hemoglobin in plasma,[9],low levels of free hemoglobin
same,Systemic complement activity and brain injury,[10],almost completely eliminated; also recorded: almost completely attenuated brain injury
dPEG24-IALILEPICCQERAA (cysteine pairing not given here) [dPEG24-PA],Complement inhibition in hemolytic assay,[6],varying degrees of complement inhibition
dPEG24-IALILEPICCQERAA-dPEG24 (cysteine pairing not given here) [dPEG24-PA-dPEG24],Complement inhibition in hemolytic assay,[6],varying degrees of complement inhibition
